Columns and labels:
[1] = Dissolving Pirfenidone in diethylene glycol monoethyl ether (attainable concentration); format: physicochemical; conditions: solvent diethylene glycol monoethyl ether
Method: That is, the diethylene glycol monoethyl ether was charged to a suitable container and warmed to 60° C. The Pirfenidone was added while stirring and a yellowish solution was obtained by continuing the stirring until the mixture was transparent. All the remaining ingredients as listed in Table 1 were dissolved in water at 60° C. and this solution was poured into the above Pirfenidone solution and the stirring was continued until mixed uniformly. The so obtained solution was protected from the light.
That is, the diethylene glycol monoethyl ether was charged to a suitable container and warmed to 60° C., and the Pirfenidone was added while stirring and a yellowish solution was obtained by continuing the stirring until the whole became transparent. Furthermore, the α-tocopherol was added and water was added while stirring until mixed uniformly. Then, the hydroxypropyl cellulose was added because of its necessity and stirred until a homogenous dispersion was formed. Furthermore, the dispersion was allowed to stand overnight until the particles of hydroxypropyl cellulose, the concentrating agent, were expanded, and finally the product was homogenized. The so obtained dispersion was allowed to stand overnight and a solution in the desired concentration was obtained. The solution was homogenized again and protected from light.

[2] = cited from earlier work

- concentration of Pirfenidone that can be dissolved [1]: ~25 % by weight
SMILES: Cc1ccc(=O)n(-c2ccccc2)c1 [Pirfenidone, 5-methyl-1-phenyl-2-(1H)-pyridone]
- solubility in water [2]: slightly soluble in water

Source: patent US7605173B2, “Pharmaceutical liquid composition containing pyridone derivative” (KDL, Inc., priority 2002, dated 2009)
